Data published in patent US20220220106A1, “QUINOLINE COMPOUNDS AND PHARMACEUTICAL COMPOSITIONS AND USES THEREOF” (Academy of Military Medical Sciences, priority 2019, published 2022).

Experiments:
mTOR kinase = biological target: T1, mTOR kinase (Homo sapiens, UniProt P42345); assay: In vitro inhibitory activity on mTOR kinase (TR-FRET, GFP-4E-BP1 substrate); assay type: biochemical; conditions: for IC50: 0.5 μg/mL mTOR, 0.4 μM GFP-4E-BP1, 3 μM ATP
T1 construct: purchased Thermo Fisher PV4753
Description: Preparation of Reaction Buffers:
Basic buffer composition: 50 mM (mmol/L) HEPES (pH 7.5), 1 mM EGTA, 0.01% Tween-20, 10 mM MnCl2, 2 mM DTT (diluted from 500 mM before used).
(2) mTOR kinase buffer solution: 1650 μL of 2.5×mTOR kinase buffer solution was composed of 1640.2 μL of 1× basic buffer and 9.8 μL of mTOR (0.21 mg/mL stock solution), and the final concentration was 0.5 μg/mL.
(3) Detection buffer solution: 3960 μL of 2× detection buffer solution was composed of 3797.1 μL of TR-FRET buffer diluent (purchased from Thermo Fisher, catalog number: PV3574), 4.5 μL of Tb-anti-p4E-BP1 antibody (3.49 μM stock solution, purchased from Thermo Fisher, catalog number: PV4757) and 158 μL of EDTA (500 mM stock solution), and the final concentrations were 2 nM Tb-anti-p4E-BP1 antibody and 10 mM EDTA.
(1) 20 μL of 100% DMSO solution containing 5 mM compound to be tested was added to a 96-well plate.
(2) The compound was serially diluted 3 times in DMSO.
(3) 1 μL of the compound in the previous step was taken, diluted with 19 μL of mTOR kinase buffer, and transferred to another 96-well plate.
(4) 4 μL of mTOR kinase solution (purchased from Thermo Fisher, catalog number: PV4753) was added to a 384-well plate.
(5) 2 μL of the compound in G was taken out and added to the 384-well plate with mTOR kinase, and incubated at room temperature for 15 minutes.
(6) 4 μL of substrate solution was added to initiate the reaction.
The final concentrations of mTOR reaction solution were: 0.5 μg/mL mTOR, 0.4 μM GFP-4E-BP1, 3 μM ATP.
The final concentration of the DMSO solution was 1%.
(7) Incubation was performed for 60 minutes at room temperature.
(8) 10 μL of detection buffer was added. The final concentrations were 2 nM Tb-anti-p4E-BP1 antibody and 10 mM EDTA.
(9) Incubation was performed for 30 minutes at room temperature.
(10) TR-FRET value was read on MD5 multi-mode plate reader (Molecular Devices). The excitation wavelength was 340 nm, the emission wavelength 1 was 495 nm, and the emission wavelength 2 was 520 nm. The ratio of 520 nm/495 nm readings was calculated as TR-FRET value.
IC50 of compound was fitted by nonlinear regression equation:
Y=Bottom+(Top-Bottom)/(1+10^((LogIC50-X)*HillSlope));
X: common logarithm value of compound concentration; Y: TR-FRET value (520 nm/495 nm).

[1] = system: Enterovirus 71 (EV71) H strain; assay: In vitro anti-EV71 activity (antiviral activity in RD cells, CellTiter-Glo); assay type: cell-based; conditions: for in vitro anti-EV71 activity, in words: EV71, RD cells; for IC50: Enterovirus A, 96 h, EV71 H strain, RD cells, 4 days, CellTiter-Glo, read-out: IC50
How it was run: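 RD cells infected with 100TCID50 EV71 in DMEM+2% FBS, with compound in 10-point three-fold dilutions, cultured 4 days at 37° C. Cell viability by CellTiter-Glo luminescence; inhibition rate relative to cell control fitted to S-curve for IC50. TD50 derived likewise; SI=TD50/IC50.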

RD cells = assay: Detection of cytotoxicity in RD cells (CellTiter-Glo); assay type: cell-based; conditions: 4 days, CellTiter-Glo, median toxic dose
How it was run: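 RD cells (1*10^5/mL) cultured 4 days at 37 °C with 10 compound concentrations from 3-fold dilution of a 400 μM pretreatment solution, final being 0.5 times that. Viability by CellTiter-Glo luminescence versus cell control; TD50 from S-curve fit; SI=TD50/IC50.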

T1 sequence (P42345 1360-2549 limits assumed): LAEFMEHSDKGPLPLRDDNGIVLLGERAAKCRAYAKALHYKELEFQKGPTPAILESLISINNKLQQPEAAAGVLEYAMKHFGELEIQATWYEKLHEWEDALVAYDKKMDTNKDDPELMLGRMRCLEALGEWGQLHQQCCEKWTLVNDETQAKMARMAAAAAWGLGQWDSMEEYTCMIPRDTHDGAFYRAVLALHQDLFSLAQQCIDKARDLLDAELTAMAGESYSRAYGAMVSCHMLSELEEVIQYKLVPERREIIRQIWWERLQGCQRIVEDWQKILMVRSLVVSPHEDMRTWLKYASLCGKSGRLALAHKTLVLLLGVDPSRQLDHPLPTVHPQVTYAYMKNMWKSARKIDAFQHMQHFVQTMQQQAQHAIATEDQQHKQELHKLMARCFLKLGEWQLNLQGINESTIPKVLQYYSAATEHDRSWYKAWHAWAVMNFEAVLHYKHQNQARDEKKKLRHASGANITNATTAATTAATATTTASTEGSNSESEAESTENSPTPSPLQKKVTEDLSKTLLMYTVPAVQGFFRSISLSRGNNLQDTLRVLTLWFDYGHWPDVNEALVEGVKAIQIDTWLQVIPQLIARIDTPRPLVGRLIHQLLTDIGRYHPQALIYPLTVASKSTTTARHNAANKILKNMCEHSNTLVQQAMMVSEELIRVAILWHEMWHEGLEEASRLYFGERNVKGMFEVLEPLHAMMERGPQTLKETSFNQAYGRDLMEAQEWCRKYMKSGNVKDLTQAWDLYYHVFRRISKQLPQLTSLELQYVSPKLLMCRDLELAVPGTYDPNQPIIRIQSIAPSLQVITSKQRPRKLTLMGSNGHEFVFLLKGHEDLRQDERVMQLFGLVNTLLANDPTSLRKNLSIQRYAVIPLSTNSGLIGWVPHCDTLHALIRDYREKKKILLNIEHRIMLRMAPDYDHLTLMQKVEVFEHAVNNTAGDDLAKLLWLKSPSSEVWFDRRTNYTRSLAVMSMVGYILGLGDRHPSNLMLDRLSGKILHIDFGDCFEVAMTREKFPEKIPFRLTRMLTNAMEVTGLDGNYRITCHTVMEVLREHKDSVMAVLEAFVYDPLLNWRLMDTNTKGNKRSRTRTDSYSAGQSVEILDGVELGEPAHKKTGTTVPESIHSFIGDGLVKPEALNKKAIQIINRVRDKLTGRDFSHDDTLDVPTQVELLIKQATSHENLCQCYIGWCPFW

Compound	melting point [°C]	inhibitory activity on mTOR kinase, in words (mTOR kinase)	IC50 (mTOR kinase) [µM]	in vitro anti-EV71 activity, in words [1]	IC50 [1] [µM]	TD50 (RD cells) [µM]
CC(=O)/C=C/c1cnc2ccc(-c3ccc(N)cc3)cc2c1Nc1cccc(C(F)(F)F)c1 [HTL-2-35, (E)-6-(4-amino)phenyl-4-[3-(trifluoromethyl)phenyl]aminoquinoline-3-butenone]	183 to 185	weak inhibitory activity	7.77	moderate anti-EV71 activity	3.7 ± 0.01	5.14 ± 1.92
Cc1ccc(-c2ccc3ncc4oc(=O)n(-c5cccc(C(F)(F)F)c5)c4c3c2)cn1 [HTL-5-23, 8-[3-(6-methyl)pyridyl]-1-[3-(trifluoromethyl)phenyl]oxazolo[5,4-c] quinolin-2(1H)-one]	299 to 300	moderate inhibitory activity	0.257	moderate inhibitory activity	4.78 ± 1.73	16.88 ± 5.46
NC(=O)NC/C=C/c1ccc2ncc3oc(=O)n(-c4cccc(C(F)(F)F)c4)c3c2c1 [HTL-6-34, (E)-8-(3-ureido-propenyl)-1-[3-(trifluoromethyl)phenyl]oxazolo[5,4-c]quinolin-2(1H)-one]	–	moderate inhibitory activity	0.849	–	> 200	66.64 ± 1.17
CC(C)(C)OC(=O)/C=C/c1ccc2ncc3oc(=O)n(-c4cccc(C(F)(F)F)c4)c3c2c1 [HTL-6-35, (E)-8-(2-tert-butoxycarbonyl-vinyl)-1-[3-(trifluoromethyl)phenyl]oxazolo[5,4-c]quinolin-2(1H)-one]	186 to 187	–	–	–	> 200	76.02 ± 11.52
CCOC(=O)CC/C=C/c1ccc2ncc3oc(=O)n(-c4cccc(C(F)(F)F)c4)c3c2c1 [HTL-6-38, (E)-8-(4-ethoxycarbonyl-but-1-enyl)-1-[3-(trifluoromethyl)phenyl]oxazolo [5,4-c]quinolin-2(1H)-one]	162 to 164	–	–	–	> 200	22.74 ± 0.01
COc1ncccc1-c1ccc2ncc3ccc(=O)n(-c4cccc(C(F)(F)F)c4)c3c2c1 [HTL-7-02, 9-[3-(2-methoxy)pyridyl]-2-oxo-1-[3-(trifluoromethyl)phenyl]-1,2-dihydrobenzo[h][1,6]naphthyridine]	–	moderate inhibitory activity	0.974	–	> 200	>200
Cc1noc(C)c1-c1ccc2ncc3ccc(=O)n(-c4cccc(C(F)(F)F)c4)c3c2c1 [HTL-7-12, 9-[4-(3,5-dimethyl)isoxazolyl]-2-oxo-1-[3-(trifluoromethyl)phenyl]-1,2-dihydrobenzo[h][1,6]naphthyridine]	121 to 122	–	1.21	–	36.9 ± 0.41	>200
O=C(Nc1ccc(-c2ccc3ncc4oc(=O)n(-c5cccc(C(F)(F)F)c5)c4c3c2)cn1)OCc1ccccc1 [HTL-7-23, 8-[3-(6-benzyloxyamido)pyridyl]-1-[3-(trifluoromethyl)phenyl]oxazolo[5,4-c]quinolin-2(1H)-one]	284 to 286	–	–	–	> 200	>200
NC(=O)/C=C/c1ccc2ncc3ccc(=O)n(-c4cccc(C(F)(F)F)c4)c3c2c1 [HTL-7-24, (E)-9-(2-carbamoyl-vinyl)-2-oxo-1-[3-(trifluoromethyl)phenyl]-1,2-dihydrobenzo[h][1,6]naphthyridine]	307 to 308	–	–	strong inhibitory activity	0.09 ± 0.01	0.15 ± 0.01
NC(=O)NC/C=C/c1ccc2ncc3ccc(=O)n(-c4cccc(C(F)(F)F)c4)c3c2c1 [HTL-7-25, (E)-9-[3-ureido-propenyl]-2-oxo-1-[3-(trifluoromethyl)phenyl]-1,2-dihydrobenzo[h][1,6]naphthyridine]	150 to 151	–	–	moderate inhibitory activity	0.41 ± 0.03	4.42 ± 0.45
CCOC(=O)/C=C/c1ccc2ncc3ccc(=O)n(-c4cccc(C(F)(F)F)c4)c3c2c1 [HTL-7-26, (E)-9-[2-ethoxycarbonyl-vinyl]-2-oxo-1-[3-(trifluoromethyl)phenyl]-1,2-dihydrobenzo[h][1,6]naphthyridine]	210 to 212	–	–	moderate inhibitory activity	0.28 ± 0.2	1.29 ± 0.57
C=CCNc1ccc(-c2ccc3ncc4ccc(=O)n(-c5cccc(C(F)(F)F)c5)c4c3c2)cn1 [HTL-7-28, 9-[3-(6-allylamino)pyridyl]-2-oxo-1-[3-(trifluoromethyl)phenyl]-1,2-dihydrobenzo[h][1,6]naphthyridine]	142 to 146	–	–	–	0.09 ± 0.01	0.23 ± 0.01
C#CCNc1ccc(-c2ccc3ncc4ccc(=O)n(-c5cccc(C(F)(F)F)c5)c4c3c2)cn1 [HTL-7-29, 9-[3-(6-propargylamino)pyridyl]-2-oxo-1-[3-(trifluoromethyl)phenyl]-1,2-dihydrobenzo[h][1,6]naphthyridine]	139 to 141	–	–	–	0.09	0.29 ± 0.03
CCOC(=O)/C=C/c1ccc2ncc3oc(=O)n(-c4cccc(C(F)(F)F)c4)c3c2c1 [WSX-1-13, (E)-8-(2-ethoxycarbonyl-vinyl)-1-[3-(trifluoromethyl)phenyl]oxazolo[5,4-c]quinolin-2(1H)-one]	221 to 224	–	–	weak inhibitory activity	100 ± 2.34	73.88 ± 3.52
CCCCC(=O)Nc1ccc(-c2ccc3ncc4oc(=O)n(-c5cccc(C(F)(F)F)c5)c4c3c2)cn1 [WSX-1-24, 8-[3-(6-valerylamino)pyridyl]-1-[3-(trifluoromethyl)phenyl]oxazolo[5,4-c]quinolin-2(1H)-one]	231 to 232	–	–	–	> 200	4.27 ± 2.83
